The text below walks through data of US9278954B2, “Pyrrolidine derivatives, pharmaceutical compositions and uses thereof” (Boehringer Ingelheim International GmbH, priority 2013, dated 2016).

Molecules are shown by their SMILES.

Broadly, the IC50 is the concentration that gives 50% inhibition. Read a low IC50 as greater potency.

Chain of human ACC2 (O00763 129-2458): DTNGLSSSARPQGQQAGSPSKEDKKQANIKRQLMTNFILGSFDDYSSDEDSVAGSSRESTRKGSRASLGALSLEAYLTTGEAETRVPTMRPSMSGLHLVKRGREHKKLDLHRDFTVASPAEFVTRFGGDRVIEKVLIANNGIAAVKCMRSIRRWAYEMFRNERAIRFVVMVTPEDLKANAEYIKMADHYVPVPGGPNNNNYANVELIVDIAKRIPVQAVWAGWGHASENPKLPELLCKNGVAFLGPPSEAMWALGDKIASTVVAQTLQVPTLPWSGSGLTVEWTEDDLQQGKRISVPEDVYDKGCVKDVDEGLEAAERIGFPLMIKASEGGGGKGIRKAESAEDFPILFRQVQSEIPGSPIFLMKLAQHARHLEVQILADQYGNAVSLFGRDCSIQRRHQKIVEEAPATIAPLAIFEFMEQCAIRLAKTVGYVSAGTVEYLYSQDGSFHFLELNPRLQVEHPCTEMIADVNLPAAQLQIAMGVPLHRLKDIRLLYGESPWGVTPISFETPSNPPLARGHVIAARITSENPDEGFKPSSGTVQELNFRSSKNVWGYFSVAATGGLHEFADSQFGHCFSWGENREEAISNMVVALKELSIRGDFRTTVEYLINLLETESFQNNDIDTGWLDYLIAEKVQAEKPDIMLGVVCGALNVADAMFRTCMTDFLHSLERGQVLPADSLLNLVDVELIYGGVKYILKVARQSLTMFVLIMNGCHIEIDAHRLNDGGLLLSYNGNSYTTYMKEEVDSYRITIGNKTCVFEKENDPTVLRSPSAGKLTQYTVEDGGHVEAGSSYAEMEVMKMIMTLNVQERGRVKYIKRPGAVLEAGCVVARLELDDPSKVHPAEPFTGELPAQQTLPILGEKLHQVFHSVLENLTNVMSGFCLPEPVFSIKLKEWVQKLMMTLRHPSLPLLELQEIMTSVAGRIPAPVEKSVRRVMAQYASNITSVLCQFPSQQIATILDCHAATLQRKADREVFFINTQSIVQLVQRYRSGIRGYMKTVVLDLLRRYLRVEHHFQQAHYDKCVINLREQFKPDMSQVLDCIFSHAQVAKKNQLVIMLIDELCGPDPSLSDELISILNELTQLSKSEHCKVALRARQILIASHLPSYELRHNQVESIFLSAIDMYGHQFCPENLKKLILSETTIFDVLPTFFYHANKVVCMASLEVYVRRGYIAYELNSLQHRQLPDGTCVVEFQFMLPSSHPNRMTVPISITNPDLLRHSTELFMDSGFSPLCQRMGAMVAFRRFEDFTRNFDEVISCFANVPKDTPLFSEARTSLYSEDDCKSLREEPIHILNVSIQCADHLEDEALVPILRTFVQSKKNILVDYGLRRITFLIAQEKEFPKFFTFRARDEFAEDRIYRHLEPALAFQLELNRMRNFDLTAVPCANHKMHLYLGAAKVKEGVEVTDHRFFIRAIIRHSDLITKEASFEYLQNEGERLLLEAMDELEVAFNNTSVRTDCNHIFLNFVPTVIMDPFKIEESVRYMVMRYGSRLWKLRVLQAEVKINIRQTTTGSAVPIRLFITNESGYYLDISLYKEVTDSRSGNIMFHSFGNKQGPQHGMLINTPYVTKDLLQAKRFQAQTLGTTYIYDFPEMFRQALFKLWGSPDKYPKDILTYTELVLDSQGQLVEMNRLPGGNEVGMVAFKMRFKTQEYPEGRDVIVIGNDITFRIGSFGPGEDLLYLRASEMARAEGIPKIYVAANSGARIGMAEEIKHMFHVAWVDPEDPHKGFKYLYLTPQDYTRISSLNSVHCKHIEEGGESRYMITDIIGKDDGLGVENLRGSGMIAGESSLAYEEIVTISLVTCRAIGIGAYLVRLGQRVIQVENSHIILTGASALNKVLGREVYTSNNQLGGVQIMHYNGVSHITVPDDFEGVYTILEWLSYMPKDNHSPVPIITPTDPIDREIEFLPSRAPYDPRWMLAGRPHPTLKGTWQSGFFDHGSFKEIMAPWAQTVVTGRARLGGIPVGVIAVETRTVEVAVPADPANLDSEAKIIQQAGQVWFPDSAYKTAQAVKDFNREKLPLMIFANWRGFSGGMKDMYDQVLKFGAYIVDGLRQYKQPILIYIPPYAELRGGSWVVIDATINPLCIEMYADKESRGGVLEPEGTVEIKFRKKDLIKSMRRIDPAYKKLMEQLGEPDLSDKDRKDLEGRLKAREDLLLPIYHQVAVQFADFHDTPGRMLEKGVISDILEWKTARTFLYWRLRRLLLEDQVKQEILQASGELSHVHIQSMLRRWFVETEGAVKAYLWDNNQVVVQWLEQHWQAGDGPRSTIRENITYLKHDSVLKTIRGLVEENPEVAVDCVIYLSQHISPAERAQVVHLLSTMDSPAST

In this test the target is human ACC2 (Homo sapiens (Human), UniProt O00763). Put plainly: ACC2 assay (spectrophotometric 384 well assay, NADH-linked kinetic method). The class given is biochemical. The note with it: hACC2 construct lacking the 128 N-terminal amino acids; 25° C., 340 nm over 15 minutes. On the procedure:
Spectrophotometric 384 Well Assay
Malonyl CoA formation by acetyl CoA carboxylases is stoichometrically linked to the consumption of ATP. ACC2 activity is measured in a NADH-linked kinetic method measuring ADP generated during the ACC reaction using a coupled lactate dehydrogenase/pyruvate kinase reaction.
The protein is then expressed in insect cells using a baculoviral expression system. Protein purification is performed by anion exchange.
All compounds are dissolved in dimethyl sulfoxide (DMSO) to a concentration of 10 mM.
The enzymatic reaction is then started by addition of a mixture of NADH, acetyl
Coenzyme A (both […].) and ATP (500 uM f.c.). The decrease of the optical density (slope S) is then determined at 25° C. at a wavelength of 340 nm over 15 minutes in a spectrophotometric reader.
Each assay microtiter plate contains wells with vehicle instead of compound as controls for the non-inhibited enzyme (100% CTL; ‘HIGH’) and wells without acetyl-CoA as controls for non-specific NADH degradation (0% CTL; ‘LOW’).
Regarding `CC(C(=O)NC1CC1C)c1ccc(O[C@@H]2CCN(c3nc(N(C)C)ncc3F)C2)cc1` (single isomer, unassigned) [6.2 isomer 1], the half-maximal inhibitory concentration (IC50) stood at 86 nM.
The figure for `CC(C(=O)NC1CC1C)c1ccc(O[C@@H]2CCN(c3nc(N(C)C)ncc3F)C2)cc1` (stereo partly drawn) [Example 1.9] is 195 nM; for `CC(C(=O)NCC(F)(F)F)c1ccc(O[C@@H]2CCN(c3ncnc(OCC(C)(F)F)c3F)C2)cc1` (stereo partly drawn) [Example 1.64] it is 658 nM; for `CC(C(=O)NC1CC1)c1ccc(O[C@@H]2CCN(c3ncnc(OCC(C)(F)F)c3F)C2)cc1` (stereo partly drawn) [Example 1.5] it is 133 nM.
`C#CCNC(=O)C(C)c1ccc(O[C@@H]2CCN(c3ccnc(NCCC)c3F)C2)cc1` (stereo partly drawn) [Example 1.16] came in with an IC50 of 266 nM.
The figure for `CNC(=O)C(C)c1ccc(O[C@@H]2CCN(c3ccc(OCC4CC4(F)F)cn3)C2)cc1` (stereo partly drawn) [Example 1.28] is 346 nM.
For `CCNC(=O)C(C)c1ccc(O[C@@H]2CCN(c3ncnc(OCC(C)(C)O)c3Cl)C2)cc1` (stereo partly drawn) [Example 1.17], the IC50 amounted to 272 nM. The IC50 values of the last two compounds are within 1.5-fold of each other.
Take `C=C(C)CNC(=O)C(C)c1ccc(O[C@@H]2CCN(c3nc(N(C)C)ncc3F)C2)cc1` (stereo partly drawn) [Example 1.44]: the concentration for half-maximal inhibition (IC50) stood at 454 nM. This IC50 is about 1.7-fold higher than that of the compound before.
In the case of `CCCNc1nccc(N2CC[C@@H](Oc3ccc(C(C)C(=O)NCC4CC(F)(F)C4)cc3)C2)c1F` (stereo partly drawn) [Example 1.92], the IC50 came out at 3700 nM.
Then `CCCNc1ncnc(N2CC[C@@H](Oc3ccc(C(C)C(=O)NC4CC4C)cc3)C2)c1F` (stereo partly drawn) [Example 3.9], with 739 nM; and `CC(C(=O)NCC(F)(F)F)c1ccc(O[C@@H]2CCN(c3ncnc(OCC(C)(C)O)c3Cl)C2)cc1` (stereo partly drawn) [Example 1.74], with 813 nM; and `CCNC(=O)C(C)c1ccc(O[C@@H]2CCN(c3ccc(OCCC4CC4)cc3)C2)cc1` (stereo partly drawn) [Example 7.21], with 454 nM.
In turn, `CC(C(=O)NC1CC1)c1ccc(O[C@@H]2CCN(c3ncnc(OCC(C)(C)O)c3F)C2)cc1` (stereo partly drawn) [Example 3.1, N-Cyclopropyl-2-(4-(1-[5-fluoro-6-(2-hydroxy-2-methyl-propoxy)-pyrimidin-4-yl]-(R)-pyrrolidin-3-yloxy)-phenyl)-propionamide] showed a 50% inhibitory concentration (IC50) of 235 nM.
Then `CCCNc1ncnc(N2CC[C@@H](Oc3ccc(C(C)C(=O)NCC(F)F)cc3)C2)c1F` (stereo partly drawn) [Example 3.10], with 955 nM; and `CCCNc1nccc(N2CC[C@@H](Oc3ccc(C(C)C(=O)NC4CC4)cc3)C2)c1F` (stereo partly drawn) [Example 1.2], with 61 nM.
The figure for `CCCNc1nccc(N2CC[C@@H](Oc3ccc(C(C)C(=O)NC(C)CO)cc3)C2)c1F` (stereo partly drawn) [Example 1.72] is 789 nM; for `CCNC(=O)C(C)c1ccc(O[C@@H]2CCN(c3ccc(OC4CCC4)cc3)C2)cc1` (stereo partly drawn) [Example 7.1, 2-(4-[1-(4-Cyclobutoxy-phenyl)-(R)-pyrrolidin-3-yloxy]-phenyl)-N-ethyl-propionamide] it is 41 nM.
Then `CC(C)NC(=O)C(C)c1ccc(O[C@@H]2CCN(c3nc(N(C)C)ncc3F)C2)cc1` (stereo partly drawn) [Example 1.81], with 934 nM; and `CC(C(=O)NC1COC1)c1ccc(O[C@@H]2CCN(c3ccc(OCC4CC4(F)F)cn3)C2)cc1` (stereo partly drawn) [Example 1.67], with 706 nM.
Take `CC[C@@H](C)NC(=O)C(C)c1ccc(O[C@@H]2CCN(c3ncnc(OCC(C)(F)F)c3F)C2)cc1` (stereo partly drawn) [Example 1.59]: the half-maximal inhibitory concentration (IC50) was found to be 603 nM.
For `CCNC(=O)C(C)c1ccc(O[C@@H]2CCN(c3ccnc(C4CC4)n3)C2)cc1` (stereo partly drawn) [Example 5, 2-(4-[1-(2-Cyclopropyl-pyrimidin-4-yl)-(R)-pyrrolidin-3-yloxy]-phenyl)-N-ethyl-propionamide], the IC50 worked out at 1760 nM. Compared with the last compound, the IC50 is about 2.9-fold higher.
Then `CC(C(=O)NC1CC1C)c1ccc(O[C@@H]2CCN(c3ccc(OCC4CC4(F)F)cn3)C2)cc1` (stereo partly drawn) [Example 1.12], with 220 nM; and `CCNC(=O)C(C)c1ccc(O[C@@H]2CCN(c3ncc(OC(C)C)cc3F)C2)cc1` (stereo partly drawn) [Example 8.3], with 543 nM; and `CC(C(=O)NC1CC1C)c1ccc(O[C@@H]2CCN(c3ncnc(OCC(C)(F)F)c3F)C2)cc1` (stereo partly drawn) [Example 1.14], with 244 nM.
As for `CC(C(=O)NC1CC1C)c1ccc(O[C@@H]2CCN(c3ncnc(OCC(C)(C)O)c3Cl)C2)cc1` (single isomer, unassigned) [6.4 isomer 2], the IC50 came to 681 nM.
Regarding `CCNC(=O)C(C)c1ccc(O[C@@H]2CCN(c3cccc(C(F)F)n3)C2)cc1` (stereo partly drawn) [Example 7.15], the 50% inhibitory concentration (IC50) came out at 408 nM. This IC50 lies about 1.7-fold lower than the previous one.
Then `CCCN(C)c1nccc(N2CC[C@@H](Oc3ccc(C(C)C(=O)NCC)cc3)C2)n1` (stereo partly drawn) [Example 2.3], with 188 nM; and `CCNC(=O)C(C)c1ccc(O[C@@H]2CCN(c3ccc(OC4CCCCC4)nc3)C2)cc1` (stereo partly drawn) [Example 7.28], with 583 nM; and `CCCNc1nccc(N2CC[C@@H](Oc3ccc(C(C)C(=O)N[C@H](C)CC)cc3)C2)c1F` (stereo partly drawn) [Example 1.29], with 367 nM.
Then `CC(C(=O)NC[C@H](C)O)c1ccc(O[C@@H]2CCN(c3ccc(OCC4CC4(F)F)cn3)C2)cc1` (stereo partly drawn) [Example 1.89], with 1880 nM; and `CCCNc1nccc(N2CC[C@@H](Oc3ccc(C(C)C(=O)NC4CC4C)cc3)C2)c1F` (single isomer, unassigned) [Example 1.4], with 118 nM; and `C=CCNC(=O)C(C)c1ccc(O[C@@H]2CCN(c3ncnc(OCC(C)(C)O)c3Cl)C2)cc1` (stereo partly drawn) [Example 1.25], with 322 nM.
Then `C=CCNC(=O)C(C)c1ccc(O[C@@H]2CCN(c3ncnc(OCC(C)(F)F)c3F)C2)cc1` (stereo partly drawn) [Example 1.45], with 463 nM; and `CCCNc1nccc(N2CC[C@@H](Oc3ccc(C(C)C(=O)NC4CC4C)cc3)C2)c1F` (single isomer, unassigned) [Example 1.3], with 101 nM; and `CC(CO)NC(=O)C(C)c1ccc(O[C@@H]2CCN(c3nc(N(C)C)ncc3F)C2)cc1` (stereo partly drawn) [Example 1.77], with 849 nM.
In turn, `C=C(C)CNC(=O)C(C)c1ccc(O[C@@H]2CCN(c3ccnc(NCCC)c3F)C2)cc1` (stereo partly drawn) [Example 1.18] gave an IC50 of 286 nM. This IC50 lies about 3-fold lower than the previous one.
In the case of `CC(C(=O)NC[C@@H](C)O)c1ccc(O[C@@H]2CCN(c3ccc(OCC4CC4(F)F)cn3)C2)cc1` (stereo partly drawn) [Example 1.88], half-maximal inhibition (IC50) required 1780 nM.
For `C=C(C)CNC(=O)C(C)c1ccc(O[C@@H]2CCN(c3ncnc(OCC(C)(F)F)c3F)C2)cc1` (stereo partly drawn) [Example 1.53], half-maximal inhibition (IC50) required 538 nM.
Then `CC(C)CNC(=O)C(C)c1ccc(O[C@@H]2CCN(c3ccc(OCC4CC4(F)F)cn3)C2)cc1` (stereo partly drawn) [Example 1.79], with 907 nM; and `CCNC(=O)C(C)c1ccc(O[C@@H]2CCN(c3ccc(OC4CCCC4)cc3)C2)cc1` (stereo partly drawn) [Example 7.2], with 72 nM.
The figure for `CCNC(=O)C(C)c1ccc(O[C@@H]2CCN(c3ccc(OC4CC4)cc3C)C2)cc1` (stereo partly drawn) [Example 7.29] is 600 nM; for `CC(C(=O)NCC(F)(F)F)c1ccc(O[C@@H]2CCN(c3nc(N(C)C)ncc3F)C2)cc1` (stereo partly drawn) [Example 1.69] it is 748 nM; for `CC(C(=O)NC1COC1)c1ccc(O[C@@H]2CCN(c3nc(N(C)C)ncc3F)C2)cc1` (stereo partly drawn) [Example 1.68] it is 724 nM.
The compound `CCNC(=O)C(C)c1ccc(O[C@@H]2CCN(c3ccnc(C(F)(F)F)n3)C2)cc1` (stereo partly drawn) [Example 9.2] gave a concentration for half-maximal inhibition (IC50) of 975 nM.
Then `CCNC(=O)C(C)c1ccc(O[C@@H]2CCN(c3cccc(OC(C)CC)c3)C2)cc1` (stereo partly drawn) [Example 7.30], with 630 nM; and `CC(C)NC(=O)C(C)c1ccc(O[C@@H]2CCN(c3ccc(OCC4CC4(F)F)cn3)C2)cc1` (stereo partly drawn) [Example 1.63], with 652 nM.
Then `CC(C(=O)NCC1CC1)c1ccc(O[C@@H]2CCN(c3ncnc(OCC(C)(C)O)c3Cl)C2)cc1` (stereo partly drawn) [Example 1.83], with 1070 nM; and `CCNC(=O)C(C)c1ccc(O[C@@H]2CCN(c3ccc(F)c(C)n3)C2)cc1` (stereo partly drawn) [Example 7.27], with 563 nM.
The figure for `CCNC(=O)C(C)c1ccc(O[C@@H]2CCN(c3ccnc(N4CCOCC4)n3)C2)cc1` (stereo partly drawn) [Example 2.6] is 808 nM; for `CC(C(=O)NCC(F)F)c1ccc(O[C@@H]2CCN(c3nc(N(C)C)ncc3F)C2)cc1` (stereo partly drawn) [Example 1.43] it is 443 nM.
For `CCNC(=O)C(C)c1ccc(O[C@@H]2CCN(c3ncnc(OCC(C)(C)O)c3F)C2)cc1` (stereo partly drawn) [Example 3.8], 622 nM corresponded to half-maximal inhibition (IC50).
Compound `CCN(C)C(=O)C(C)c1ccc(O[C@@H]2CCN(c3ccc(OCC4CC4(F)F)cn3)C2)cc1` (stereo partly drawn) [Example 1.73] gave a half-maximal inhibitory concentration (IC50) of 798 nM.
The figure for `CCCNc1nccc(N2CC[C@@H](Oc3ccc(C(C)C(=O)NC4CCC4)cc3)C2)c1F` (stereo partly drawn) [Example 1.41] is 438 nM; for `CCNC(=O)C(C)c1ccc(O[C@@H]2CCN(c3ccc(OCC4CC4(F)F)nc3C#N)C2)cc1` (stereo partly drawn) [Example 7.23] it is 470 nM; for `CCCNc1nccc(N2CC[C@@H](Oc3ccc(C(C)C(=O)NCC(F)F)cc3)C2)c1F` (stereo partly drawn) [Example 1.21] it is 309 nM.
`C#CCNC(=O)C(C)c1ccc(O[C@@H]2CCN(c3ncnc(OCC(C)(F)F)c3F)C2)cc1` (stereo partly drawn) [Example 1.42] showed an IC50 of 441 nM.
Then `CCNC(=O)C(C)c1ccc(O[C@@H]2CCN(c3ccc(OC(C)C)cc3)C2)cc1` (stereo partly drawn) [Example 7.22], with 455 nM.
Then `CC(C(=O)NC1CC1C)c1ccc(O[C@@H]2CCN(c3ncnc(OCC(C)(C)O)c3F)C2)cc1` (stereo partly drawn) [Example 3.2], with 259 nM; and `C#CCNC(=O)C(C)c1ccc(O[C@@H]2CCN(c3ncnc(OCC(C)(C)O)c3Cl)C2)cc1` (stereo partly drawn) [Example 1.20], with 306 nM.
The figure for `C=CCCNC(=O)C(C)c1ccc(O[C@@H]2CCN(c3ccnc(NCCC)c3F)C2)cc1` (stereo partly drawn) [Example 1.71] is 779 nM.
